According to patent US20040248918A1, “N-phenyl-2-pyrimidine-amine derivatives and process for the preparation thereof” (IL YANG PHARM. CO., LTD., priority 2003, published 2004):

How the values were obtained:
[1] = tested on: pancreatic cancer cell of PANC-1; test: Growth inhibition of PANC-1 (MTT); format: cell-based; settings: for IC50: Homo sapiens, read-out: IC50
[2] = tested on: prostatic cancer cell (DU-145); test: Growth inhibition of DU-145 (MTT); format: cell-based; design: IC50 as fraction of that of Imatinib mesylate: unit not given beside the values; settings: for IC50: Homo sapiens
Experimental: (§1) In the present experiment, the inhibitory activity of the compound of formula (1) was determined against the growth of K562 cancer cell. First, the cells were allowed to stand in RPMI (Roswell Park Memorial Institute)-1640 medium containing 10% (v/v) fetal bovine serum in an incubator of 37° C. and 5% by volume of CO2. The cancer cells (1000 cells) were transferred to a 96-well plate, and the test compound was diluted. The plate was allowed to stand under the above mentioned conditions for 2 days. After this treatment, to the cells was added 0.2% MTT (3-[4,5-dimethylthiazol-2-yl]-2,5-diphenyltetrazolium bromide) solution, and the resulting mixture was allowed to stand under the constant temperature-condition for 4 hours. The supernatant was removed to leave the resulting crystal. DMSO was added to dissolve the crystal, and the absorbance of the solution was measured at 540 nm. IC50 value was calculated using a computer system according to the following formula: […]
(§2) The test was performed according to the same procedure as Experiment 1.

[3] = tested on: U937 cancer cell (monocyte like leukemia cell line); test: Growth inhibition of U937 cancer cell (MTT); format: cell-based; settings: for IC50: Homo sapiens, U-937
Experimental: as §1
In the present experiment, the inhibitory activity of the compound of formula (1) was determined against the growth of U937 cancer cell. The test was performed according to the same procedure as Experiment 1.

mice (ICR) [4] = test: Acute toxicity test in mice (oral administration); settings: mouse, in vivo, po, 2000 mg/kg
Experimental: (§3) In order to determine the acute toxicity of the compound of the present invention when the compound is orally administered, mice (ICR, 24˜26 g) were fasted for 16 hours. One group consists of 10 males and 10 females. The first group is the control group and physiological saline was administered per oral to this group. The compounds of Examples 2 and 4 were orally administered in a dosage of 2000 mg/kg, the maximum dosage in acute toxicity test, to each test group. […] On the last day of the test, 14th day from the start, the mice were subjected to an autopsy in order to examine changes of the internal organs. […] This means that the compounds of the present invention including those of Examples 2 and 4 are safe in the aspect of acute toxicity.

[5] = Acute toxicity test in mice (oral administration); settings: both sexes, ICR, mouse, in vivo, 2000 mg/kg; mice, oral
Experimental: as §3

[6] = tested on: lymphoma cell (RPMI-6666); test: Growth inhibition of RPMI-6666 (MTT); format: cell-based; settings: for IC50: Homo sapiens
Experimental: as §1, §2

sarcoma-180 = test: Anti-cancer activity in sarcoma animal model; format: in vivo, ICR mouse; settings: day 30; for Average tumor weight (Mean ± S.E.): three times at intervals of 4 days, in g (unit assumed)
Experimental: The anti-cancer activity against sarcoma-180 was determined using ICR mouse (22˜25 g, male). Sarcoma-180 (0.1 ml; 5×10^7 cells/ml) was hypodermically implanted to the left inguinal area of the mouse. After 72 hours from the hypodermic implantation, physiological saline was intravenously administered to the control group. For the test groups, the compound of Example 10 dissolved in physiological saline in a concentration of 25 or 50 mg/kg was intravenously administered three times at intervals of 4 days. On the 30th day from the implantation of the tumor cell, the mice were sacrificed to take out the induced solid tumors. The solid tumors were weighed, the average weight of the tumors was obtained, and the percent inhibition ratio was calculated according to the following formula:
Inhibition ratio (I.R.) (%)=[(Cw−Tw)/Cw]×100
I.R. represents the percent inhibition ratio,
Cw represents the average weight of tumor of the control group; and
Tw represents the average weight of tumor of the test group.

mice (ICR) [7] = test: Acute toxicity test in mice (intravenous administration); format: in vivo
Experimental: (§4) In this test, the acute toxicity of the compound of the present invention when the compound is intravenously administered was determined on mice (ICR, 24˜26 g). One group consists of 10 males and 10 females. The first group is the control group and physiological saline was intravenously administered to this group. The compound of Example 10 was intravenously administered in dosages of 25, 50, 75, and 100 mg/kg, respectively, to each test group. […] On the last day of the test, 14th day from the start, the mice were subjected to an autopsy in order to examine changes of the internal organs. […] No mouse died in these test groups. Further, in the test group of 100 mg/kg dosage, 8 mice among 10 died within 10 minutes after the administration.

[8] = as above; format: in vivo; settings: both sexes, ICR, mouse, in vivo, iv; mice, intravenously administered
Experimental: as §4

CS(=O)(=O)O.Cc1ccc(NC(=O)c2ccc(CNN3CCN(C)CC3)cc2)cc1Nc1nccc(-c2cccnc2)n1 [Example 4, 4-(4-methylpiperazin-1-ylaminomethyl)-N-[4-methyl-3-(4-(pyridin-3-yl)pyrimidin-2-yl)aminophenyl]benzamide methanesulfonate]
Improved activity versus 5-Fu [1]: 10 times
IC50 [1]: 53.8 µg/mL
IC50 [2]: 41.3 µg/mL
Improved activity versus Imatinib mesylate [3]: 30 times
IC50 [3]: 0.9 µg/mL
Clinical conditions and autopsy (mice (ICR) [4]): neither abnormal response nor specific autopsy result was observed
Mortality during the test period (mice (ICR) [4]): no mouse died
LD50 at 14 days [5]: ≥ 2000 mg/kg
IC50 [6]: 33.8 µg/mL

CN1CCCN(Cc2ccc(C(=O)Nc3ccc(Nc4nccc(-c5cccnc5)n4)cc3)cc2)CC1.CS(=O)(=O)O [Example 10, 4-(4-methylhomopiperazin-1-ylmethyl)-N-[4-(4-(pyridin-3-yl)pyrimidin-2-yl)aminophenyl]benzamide methanesulfonate]
Improved activity versus 5-Fu [1]: > 120 times
Improved activity versus Imatinib mesylate [1]: more than 10 times
Improved activity versus cisplatin [1]: more than 9 times
IC50 [1]: 4.62 µg/mL
IC50 as fraction of that of Imatinib mesylate [2]: 1/2
IC50 [2]: 5.51 µg/mL
IC50 [3]: 7.3 µg/mL
Percent Inhibition Ratio (I.R.) (sarcoma-180; 25 mg/kg i.v.): 36.1%
Average tumor weight (Mean ± S.E.) (sarcoma-180; 25 mg/kg i.v.): 2.09 ± 1.4
Percent Inhibition Ratio (I.R.) (sarcoma-180; 50 mg/kg i.v.): 63.0%
Average tumor weight (Mean ± S.E.) (sarcoma-180; 50 mg/kg i.v.): 1.21 ± 1.2
IC50 as fraction of that of Imatinib mesylate [6]: 1/15
IC50 [6]: 2.12 µg/mL
Clinical conditions and autopsy (mice (ICR) [7]; 25 mg/kg i.v., 14 days): neither abnormal response nor specific autopsy
Mice died (mice (ICR) [7]; 100 mg/kg i.v., within 10 minutes after the administration): 8 mice among 10
Clinical conditions (mice (ICR) [7]; 50 and 75 mg/kg i.v.): weak trembling immediately after the administration
Mortality (mice (ICR) [7]; 50 and 75 mg/kg i.v.): No mouse died
Time to recovery from trembling (mice (ICR) [7]; 50 and 75 mg/kg i.v.): ≤ 1 h
LD50 at 14 days [8]: 75 to 100 mg/kg
